This is an account of results in patent publication US20110015119A1, “NOVEL SEMI-SYNTHETIC GLYCOPEPTIDES AS ANTIBACTERIAL AGENTS” (LEAD THERAPEUTICS, INC., priority 2009, published 2011).

Converted amounts (≈) assume the structure as drawn. Like-named read-outs stand apart in the source and are kept apart here.

What all share (assay type): cell-based
For experiment [1], the system named is Enterococcus faecium 800. In words: MIC by broth microdilution, EFcm 800. A digest of the protocol:
(§1)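 Clinical isolates, either susceptible or resistant to natural glycopeptides, were tested by broth microdilution in Mueller-Hinton medium as NCCLS recommends.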
On the technique in general: Dilution methods test growth across graded concentrations, often in twofold steps.

Experiment [2] deals with Staphylococcus epidermidis 835. Description: MIC by broth microdilution, SE 835. A digest of the protocol: as §1
The test system of experiment [3] is Enterococcus faecium 752 (VRE, Van A). In words: MIC by broth microdilution, EFcm 752. The procedure, abridged:
as §1

Experiment [4] deals with Enterococcus faecalis 848 (VRE, Van A). Description: MIC by broth microdilution, EFc 848. A digest of the protocol: as §1
Experiment [5] relates to Staphylococcus aureus 757 (MRSA). In words: MIC by broth microdilution, SA 757. The conditions noted are these: read-out: MIC SA 757. A digest of the protocol: as §1
Experiment [6] concerns Staphylococcus aureus 100 (ATCC 29213). In words: MIC by broth microdilution, SA 100. A digest of the protocol:
as §1

Experiment [7] concerns Staphylococcus aureus 2012 (VISA). Description: MIC by broth microdilution, SA 2012. The procedure, abridged:
as §1

The subject of experiment [8] is Streptococcus pyogenes 712. Description: MIC by broth microdilution, SPY 712. A digest of the protocol:
as §1

In experiment [9] the test system is Streptococcus pneumoniae 1195 (ATCC 49619). Description: MIC by broth microdilution, SPNE 1195. The procedure, abridged:
as §1

Experiment [10] concerns Enterococcus faecalis 101 (ATCC 29212). Description: MIC by broth microdilution, EFc 101. The procedure, abridged:
as §1

Experiment [11] concerns Staphylococcus epidermidis 831 (MRSE). Description: MIC by broth microdilution, SE 831. Particulars: read-out: MIC SE 831. A digest of the protocol: as §1
The mark [12] stands for this setting: Enterococcus faecium 800, class symbols, read-out: MIC E FCM 800.
The mark [13] stands for this setting: Staphylococcus epidermidis 835, class symbols, read-out: MIC SE 835.
[14] abbreviates: Enterococcus faecium 752 (VRE, Van A), class symbols, read-out: MIC E FCM 752.
The mark [15] stands for this setting: Enterococcus faecalis 848 (VRE, Van A), class symbols, read-out: MIC E FC 848.
The mark [16] stands for this setting: Staphylococcus aureus 757 (MRSA), class symbols.
[17] abbreviates: ATCC29213, Staphylococcus aureus 100 (ATCC 29213), class symbols, read-out: MIC SA 100.
Setting [18] is: Staphylococcus aureus 2012 (VISA), class symbols, read-out: MIC SA 2012.
Setting [19] is: Streptococcus pyogenes 712, class symbols, read-out: MIC S PYO 712.
The mark [20] stands for this setting: ATCC49619, Streptococcus pneumoniae 1195 (ATCC 49619), class symbols, read-out: MIC S PNE 1195.
The mark [21] stands for this setting: ATCC29212, Enterococcus faecalis 101 (ATCC 29212), class symbols, read-out: MIC E FC 101.
Where [22] appears, read: Staphylococcus epidermidis 831 (MRSE), class symbols.
[23] abbreviates: Enterococcus faecium, 800, read-out: MIC E FCM 800.
Setting [24] is: Staphylococcus epidermidis, 835, read-out: MIC SE 835.
Where [25] appears, read: Staphylococcus aureus, ATCC29213, read-out: MIC SA 100.
[26] abbreviates: Streptococcus pyogenes, 712, read-out: MIC S PYO 712.
[27] abbreviates: Streptococcus pneumoniae, ATCC49619, read-out: MIC S PNE 1195.
The mark [28] stands for this setting: Staphylococcus epidermidis, MRSE.

By MIC is commonly meant the lowest concentration that inhibits growth of the organism. As to `CCCCCCc1ccc(S(=O)(=O)NCCCCCCNCc2c(O)cc3c(c2O)-c2cc(ccc2O)[C@H]2NC(=O)[C@@H]4NC(=O)[C@H](CC(N)=O)NC(=O)[C@H](NC(=O)[C@@H](CC(C)C)NC)[C@H](O)c5ccc(c(Cl)c5)Oc5cc4cc(c5O[C@@H]4O[C@H](CO)[C@@H](O)[C@H](O)[C@H]4O[C@H]4C[C@](C)(NC(=O)NC5CC5)[C@H](O)[C@H](C)O4)Oc4ccc(cc4Cl)[C@@H](O)[C@H](NC2=O)C(=O)N[C@@H]3C(=O)O)cc1` (atropisomer, axis not shown) [Compound 365], the MIC in [1] (setting [12]) is 0.01 to 0.5 µg/mL (≈ 0.00531 to 0.265 µM); in experiment [2] (setting [13]) it was 0.01 to 0.5 µg/mL (≈ 0.00531 to 0.265 µM); in experiment [3] (setting [14]), 1 to 2 µg/mL (≈ 0.531 to 1.06 µM); in [4] (setting [15]), above 16 µg/mL; in [5] (setting [16]), 0.01 to 0.5 µg/mL (≈ 0.00531 to 0.265 µM); in [6] (setting [17]), 0.01 to 0.5 µg/mL (≈ 0.00531 to 0.265 µM). In addition, the MIC in experiment [7] (setting [18]), in experiment [8] (setting [19]), in experiment [9] (setting [20]), in experiment [10] (setting [21]) and in experiment [11] (setting [22]) was 0.01 to 0.5 µg/mL (≈ 0.00531 to 0.265 µM) in each case.

In the case of `CCCCCCc1ccc(S(=O)(=O)NCCCCCCNCc2c(O)cc3c(c2O)-c2cc(ccc2O)[C@H]2NC(=O)[C@@H]4NC(=O)[C@H](CC(N)=O)NC(=O)[C@H](NC(=O)[C@@H](CC(C)C)NC)[C@H](O)c5ccc(c(Cl)c5)Oc5cc4cc(c5O[C@@H]4O[C@H](CO)[C@@H](O)[C@H](O)[C@H]4O[C@H]4C[C@]5(C)NC(=O)O[C@@H]5[C@H](C)O4)Oc4ccc(cc4Cl)[C@@H](O)[C@H](NC2=O)C(=O)N[C@@H]3C(=O)O)cc1` (atropisomer, axis not shown) [Compound 305], the MIC in [1] (setting [12]) fell in the range of 0.01 to 0.5 µg/mL (≈ 0.00547 to 0.274 µM); in [2] (setting [13]), 0.01 to 0.5 µg/mL (≈ 0.00547 to 0.274 µM); in [3] (setting [14]), 1 to 2 µg/mL (≈ 0.547 to 1.09 µM); in experiment [4] (setting [15]), 8 to 16 µg/mL (≈ 4.38 to 8.75 µM); in experiment [5] (setting [16]), 0.01 to 0.5 µg/mL (≈ 0.00547 to 0.274 µM); in experiment [6] (setting [17]), 0.01 to 0.5 µg/mL (≈ 0.00547 to 0.274 µM). The MIC in experiment [7] (setting [18]), in [8] (setting [19]), in experiment [9] (setting [20]), in experiment [10] (setting [21]) and in experiment [11] (setting [22]) was 0.01 to 0.5 µg/mL (≈ 0.00547 to 0.274 µM) throughout.

Turning to `CCCCCOc1ccc(CCNC(=O)Oc2cc(O)c3c(c2)[C@@H](C(=O)O)NC(=O)[C@H]2NC(=O)[C@H](NC(=O)[C@@H]4NC(=O)[C@H](CC(N)=O)NC(=O)[C@H](NC(=O)[C@@H](CC(C)C)NC)[C@H](O)c5ccc(c(Cl)c5)Oc5cc4cc(c5O[C@@H]4O[C@H](CO)[C@@H](O)[C@H](O)[C@H]4O[C@H]4C[C@](C)(N)[C@H](O)[C@H](C)O4)Oc4ccc(cc4Cl)[C@H]2O)c2ccc(O)c-3c2)cc1` (atropisomer, axis not shown) [Compound 356], the MIC in experiment [1] (setting [23]) is 0.01 to 0.5 µg/mL (≈ 0.00594 to 0.297 µM); in [2] (setting [24]), 0.01 to 0.5 µg/mL (≈ 0.00594 to 0.297 µM); in experiment [3] (Enterococcus faecium, VRE, read-out: MIC E FCM 752, Enterococcus faecium 752 (VRE, Van A), class symbols), 4 to 8 µg/mL (≈ 2.38 to 4.75 µM); in experiment [4] (Enterococcus faecalis, VRE, read-out: MIC E FC 848, Enterococcus faecalis 848 (VRE, Van A), class symbols), above 16 µg/mL; in experiment [5] (Staphylococcus aureus, MRSA), 0.01 to 0.5 µg/mL (≈ 0.00594 to 0.297 µM); in experiment [6] (setting [25]), 0.01 to 0.5 µg/mL (≈ 0.00594 to 0.297 µM). Further, the MIC in [7] (Staphylococcus aureus, VISA, read-out: MIC SA 2012, Staphylococcus aureus 2012 (VISA), class symbols) was in the range of 1 to 2 µg/mL (≈ 0.594 to 1.19 µM); in experiment [8] (setting [26]), 0.01 to 0.5 µg/mL (≈ 0.00594 to 0.297 µM); in experiment [9] (setting [27]), 0.01 to 0.5 µg/mL (≈ 0.00594 to 0.297 µM); in experiment [10] (Enterococcus faecalis, ATCC29212, read-out: MIC E FC 101, Enterococcus faecalis 101 (ATCC 29212), class symbols), 0.01 to 0.5 µg/mL (≈ 0.00594 to 0.297 µM); in experiment [11] (setting [28]), 0.01 to 0.5 µg/mL (≈ 0.00594 to 0.297 µM).

In the case of `CN[C@H](CC(C)C)C(=O)N[C@H]1C(=O)N[C@@H](CC(N)=O)C(=O)N[C@H]2C(=O)N[C@H]3C(=O)N[C@H](C(=O)N[C@H](C(=O)O)c4cc(O)cc(O)c4-c4cc3ccc4O)[C@H](O)c3ccc(c(Cl)c3)Oc3cc2cc(c3O[C@@H]2O[C@H](CO)[C@@H](O)[C@H](O)[C@H]2O[C@H]2C[C@](C)(N)[C@H](O)[C@H](C)O2)Oc2ccc(cc2Cl)[C@H]1O` [Vancomycin, vancomycin, reference compound], the MIC in experiment [1] (setting [23]) is 1 µg/mL (≈ 0.69 µM); in experiment [2] (setting [24]) it was 2 µg/mL (≈ 1.38 µM); in [3] (Enterococcus faecium, VRE, read-out: MIC E FCM 752, Enterococcus faecium 752 (VRE, Van A), numeric, comparison) it was above 64 µg/mL; in experiment [4] (Enterococcus faecalis, VRE, read-out: MIC E FC 848, Enterococcus faecalis 848 (VRE, Van A), numeric, comparison) it was above 64 µg/mL; in experiment [5] (Staphylococcus aureus, MRSA) it was 1 µg/mL (≈ 0.69 µM); in experiment [6] (setting [25]) it was 1 µg/mL (≈ 0.69 µM). Also, the MIC in [7] (Staphylococcus aureus, VISA, read-out: MIC SA 2012, Staphylococcus aureus 2012 (VISA), numeric, comparison) stood at 16 µg/mL (≈ 11 µM); in experiment [8] (setting [26]), 0.5 µg/mL (≈ 0.345 µM); in [9] (setting [27]) it was 0.25 µg/mL (≈ 0.173 µM); in experiment [10] (Enterococcus faecalis, ATCC29212, read-out: MIC E FC 101, Enterococcus faecalis 101 (ATCC 29212), numeric, comparison) it was 2 µg/mL (≈ 1.38 µM); in experiment [11] (setting [28]), 2 µg/mL (≈ 1.38 µM). Besides, the “MIC SA 2012” value in experiment [7] (Staphylococcus aureus 2012 (VISA), numeric, comparison) came to 8 µg/mL (≈ 5.52 µM). In experiment [10] (Enterococcus faecalis 101 (ATCC 29212), numeric, comparison), the “MIC E FC 101” value came out at 4 µg/mL (≈ 2.76 µM).
